From patent US20190262453A1, “DESIGN AND COMPOSITION OF CELL-STABILIZED PHARMACEUTICAL FORMULATIONS” (THE REGENTS OF THE UNIVERSITY OF MICHIGAN, priority 2016, published 2019)
Several values for one entry are separate records, joined by “and”; a condition that tells them apart may be missing. Equal values may be shown once.

Tested on: RAW264.7 cells
Assay: Cell viability (XTT assay)
Assay type: cell-based
Settings: not given
Experimental: Cell Viability. Viability of RAW264.7 cells were performed using Cell Proliferation Kit II (XTT) (Roche Applied Science, Mannheim, Germany, Cat. No. 11465015001) using the manufacturer's instructions. […] Post 24 hours exposure to CFZ, the cells were incubated with the yellow XTT solution (final concentration 0.3 mg/ml) for 4 h. […] An increase in number of living cells directly correlates to the amount of orange formazan formed, as monitored by the solution absorbance at 500 nm (Abs500). The following formula was used to determine viability of drug and inhibitor treated cells using untreated cells (blank) as a control—Cell Viability=(Abs500, treated—Abs700,treated)/(Abs500, blank—Abs700,blank).

Compound | effect on cell viability
O=C(O)c1cc([N+](=O)[O-])ccc1NCCCc1ccccc1 [NPPB] | no significant effect

Same assay, conditions: BafA1 alone at 6 nM, n=6

Compound | cell viability [%]
CO/C1=C\C(C)=C\[C@@H](C)[C@@H](O)[C@@H](C)C/C(C)=C/C=C/[C@H](OC)[C@@H]([C@@H](C)[C@@H](O)[C@H](C)[C@@]2(O)C[C@@H](O)[C@H](C)[C@@H](C(C)C)O2)OC1=O [BafA1, bafilomycin A1] | 65±25

Same assay, conditions: BafA1 alone at 8 nM, n=6

Compound | cell viability [%]
CO/C1=C\C(C)=C\[C@@H](C)[C@@H](O)[C@@H](C)C/C(C)=C/C=C/[C@H](OC)[C@@H]([C@@H](C)[C@@H](O)[C@H](C)[C@@]2(O)C[C@@H](O)[C@H](C)[C@@H](C(C)C)O2)OC1=O [BafA1, bafilomycin A1] | 33±6

Tested on: not given
Assay: not given
Settings: in vivo; cited from earlier work

Compound | Vd
COc1cc2nc(N(C)CCCNC(=O)C3CCCO3)nc(N)c2cc1OC (stereo not drawn) [Alfuzosin] | 3.2 L/kg
O=C1CCc2ccc(OCCCCN3CCN(c4cccc(Cl)c4Cl)CC3)cc2N1 [Aripiprazole] | 4.9 L/kg
CC[C@H]1OC(=O)[C@H](C)[C@@H](O[C@H]2C[C@@](C)(OC)[C@@H](O)[C@H](C)O2)[C@H](C)[C@@H](O[C@@H]2O[C@H](C)C[C@H](N(C)C)[C@H]2O)[C@](C)(O)C[C@@H](C)CN(C)[C@H](C)[C@@H](O)[C@]1(C)O [Azithromycin] | 31 L/kg
CC(NC(C)(C)C)C(=O)c1cccc(Cl)c1 (stereo not drawn) [Bupropion] | 18.6 L/kg
O=C1CC2(CCCC2)CC(=O)N1CCCCN1CCN(c2ncccn2)CC1 [Buspirone] | 5.3 L/kg
CCCCCOC(=O)Nc1nc(=O)n([C@@H]2O[C@H](C)[C@@H](O)[C@H]2O)cc1F [Capecitabine] | 27.27 L/kg
Cc1ccc(-c2cc(C(F)(F)F)nn2-c2ccc(S(N)(=O)=O)cc2)cc1 [Celecoxib] | 6.12 L/kg
CCN(CC)CCCC(C)Nc1ccnc2cc(Cl)ccc12 (stereo not drawn) [Chloroquine] | 196.5 L/kg
CN(C)CCC(c1ccc(Cl)cc1)c1ccccn1 (stereo not drawn) [Chlorpheniramine] | 3.2 L/kg
CN(C)CCCN1c2ccccc2Sc2ccc(Cl)cc21 [Chlorpromazine] | 21 L/kg
C[C@@H](NCCCc1cccc(C(F)(F)F)c1)c1cccc2ccccc12 [Cinacalcet] | 17.6 L/kg
O=C1CN=C(c2ccccc2Cl)c2cc([N+](=O)[O-])ccc2N1 [Clonazepam] | 3.2 L/kg
CN1CCN(C2=Nc3cc(Cl)ccc3Nc3ccccc32)CC1 [Clozapine] | 5.4 L/kg
CN(C)CC(c1ccc(O)cc1)C1(O)CCCCC1 (stereo not drawn) [Desvenlafaxine] | 7.5 L/kg
COc1ccc([C@@H]2Sc3ccccc3N(CCN(C)C)C(=O)[C@@H]2OC(C)=O)cc1 [Diltiazem] | 3.3 L/kg
CC(=O)O[C@@]12CO[C@@H]1C[C@H](O)[C@@]1(C)C(=O)[C@H](O)C3=C(C)[C@@H](OC(=O)[C@H](O)[C@@H](NC(=O)OC(C)(C)C)c4ccccc4)C[C@@](O)([C@@H](OC(=O)c4ccccc4)[C@H]21)C3(C)C [Docetaxel] | 7.27 L/kg
CN(C)CCC=C1c2ccccc2COc2ccccc21 [Doxepin] | 24 L/kg
COc1cccc2c1C(=O)c1c(O)c3c(c(O)c1C2=O)C[C@@](O)(C(=O)CO)C[C@@H]3O[C@H]1C[C@H](N)[C@H](O)[C@H](C)O1 [Doxorubicin] | 682 L/kg
CCCCCc1cc(O)c2c(c1)OC(C)(C)[C@@H]1CCC(C)=C[C@@H]21 [Dronabinol] | 8.9 L/kg
CNCC[C@H](Oc1cccc2ccccc12)c1cccs1 [Duloxetine] | 7 L/kg
Nc1nc(=O)n([C@@H]2CS[C@H](CO)O2)cc1F [Emtricitabine] | 3.5 L/kg
O=C(NCC1CCCCN1)c1cc(OCC(F)(F)F)ccc1OCC(F)(F)F (stereo not drawn) [Flecainide] | 4.9 L/kg

Compound | Vd
CNCCC(Oc1ccc(C(F)(F)F)cc1)c1ccccc1 (stereo not drawn) [Fluoxetine] | 35 L/kg
OCCN1CCN(CCCN2c3ccccc3Sc3ccc(C(F)(F)F)cc32)CC1 [Fluphenazine] | 11 L/kg
C[C@]12CC[C@@H]3c4ccc(O)cc4C[C@@H](CCCCCCCCC[S+]([O-])CCCC(F)(F)C(F)(F)F)[C@H]3[C@@H]1CC[C@@H]2O (stereo partly drawn) [Fulvestrant] | 4.15 L/kg
O=C(CCCN1CCC(O)(c2ccc(Cl)cc2)CC1)c1ccc(F)cc1 [Haloperidol] | 18 L/kg
CCN(CCO)CCCC(C)Nc1ccnc2cc(Cl)ccc12 (stereo not drawn) [Hydroxychloroquine] | 525 L/kg
OCCOCCN1CCN(C(c2ccccc2)c2ccc(Cl)cc2)CC1 (stereo not drawn) [Hydroxyzine] | 19 L/kg and 16 L/kg
CCCCCN(C)CCC(O)(P(=O)(O)O)P(=O)(O)O [Ibandronate] | 5.8 L/kg
CC(=O)[C@]1(O)Cc2c(O)c3c(c(O)c2[C@@H](O[C@H]2C[C@H](N)[C@H](O)[C@H](C)O2)C1)C(=O)c1ccccc1C3=O [Idarubicin] | 24.7 L/kg
CC1=C(/C=C/C(C)=C/C=C/C(C)=C\C(=O)O)C(C)(C)CCC1 [Isotretinoin] | 5 L/kg
CCC(C)n1ncn(-c2ccc(N3CCN(c4ccc(OCC5COC(Cn6cncn6)(c6ccc(Cl)cc6Cl)O5)cc4)CC3)cc2)c1=O (stereo not drawn) [Itraconazole] | 10.7 L/kg
OC(c1cc(C(F)(F)F)nc2c(C(F)(F)F)cccc12)C1CCCCN1 (stereo not drawn) [Mefloquine] | 19 L/kg
CC12CC3CC(C)(C1)CC(N)(C3)C2 [Memantine] | 10.9 L/kg
CCOC(=O)C1(c2ccccc2)CCN(C)CC1 [Meperidine] | 4.4 L/kg
CCN(CC)CCNC(=O)c1cc(Cl)c(N)cc1OC [Metoclopramide] | 3.4 L/kg
COCCc1ccc(OCC(O)CNC(C)C)cc1 (stereo not drawn) [Metoprolol] | 4.2 L/kg
CN1CCN2c3ncccc3Cc3ccccc3C2C1 (stereo not drawn) [Mirtazapine] | 4.5 L/kg
O=C1c2c(O)ccc(O)c2C(=O)c2c(NCCNCCO)ccc(NCCNCCO)c21 [Mitoxantrone] | 90 L/kg
COc1c(C)c2c(c(O)c1C/C=C(\C)CCC(=O)O)C(=O)OC2 [Mycophenolate] | 3.8 L/kg
Cc1cn(-c2cc(NC(=O)c3ccc(C)c(Nc4nccc(-c5cccnc5)n4)c3)cc(C(F)(F)F)c2)cn1 [Nilotinib] | 3.0 L/kg
O=[N+]([O-])OCC(CO[N+](=O)[O-])O[N+](=O)[O-] [Nitroglycerin] | 3.3 L/kg
CNCCC=C1c2ccccc2CCc2ccccc21 [Nortriptyline] | 18 L/kg
Cc1nc2n(c(=O)c1CCN1CCC(c3noc4cc(F)ccc34)CC1)CCCC2O (stereo not drawn) [Paliperidone] | 9.1 L/kg

Compound | Vd
Fc1ccc([C@@H]2CCNC[C@H]2COc2ccc3c(c2)OCO3)cc1 [Paroxetine] | 17 L/kg
CC[C@@H]([C@H](C)O)n1ncn(-c2ccc(N3CCN(c4ccc(OC[C@@H]5CO[C@@](Cn6cncn6)(c6ccc(F)cc6F)C5)cc4)CC3)cc2)c1=O [Posaconazole] | 11.9 L/kg
CCCN[C@H]1CCc2nc(N)sc2C1 [Pramipexole] | 7.3 L/kg
O=C(C1CCCCC1)N1CC(=O)N2CCc3ccccc3C2C1 (stereo not drawn) [Praziquantel] | 9.55 L/kg
CC(CN1c2ccccc2Sc2ccccc21)N(C)C (stereo not drawn) [Promethazine] | 13.4 L/kg
CC(C)NCC(O)COc1cccc2ccccc12 (stereo not drawn) [Propranolol] | 4.3 L/kg
OCCOCCN1CCN(C2=Nc3ccccc3Sc3ccccc32)CC1 [Quetiapine] | 10 L/kg
O=C(c1ccc(OCCN2CCCCC2)cc1)c1c(-c2ccc(O)cc2)sc2cc(O)ccc12 [Raloxifene] | 2348 L/kg
CCCN(CCC)CCc1cccc2c1CC(=O)N2 [Ropinirole] | 7.5 L/kg
CO[C@H]1C[C@@H]2CC[C@@H](C)[C@@](O)(O2)C(=O)C(=O)N2CCCC[C@H]2C(=O)O[C@H]([C@H](C)C[C@@H]2CC[C@@H](O)[C@H](OC)C2)CC(=O)[C@H](C)/C=C(\C)[C@@H](O)[C@@H](OC)C(=O)[C@H](C)C[C@H](C)/C=C/C=C/C=C/1C [Sirolimus] | 12 L/kg
O=C(O[C@H]1CN2CCC1CC2)N1CCc2ccccc2[C@@H]1c1ccccc1 [Solifenacin] | 671 L/kg
CC(=O)S[C@@H]1CC2=CC(=O)CC[C@]2(C)[C@H]2CC[C@@]3(C)[C@@H](CC[C@@]34CCC(=O)O4)[C@H]12 [Spironolactone] | 10 L/kg
CCN(CC)CCNC(=O)c1c(C)[nH]c(/C=C2\C(=O)Nc3ccc(F)cc32)c1C [Sunitinib] | 4 L/kg
CC/C(=C(\c1ccccc1)c1ccc(OCCN(C)C)cc1)c1ccccc1 [Tamoxifen] | 55 L/kg
CO[C@H]1C[C@@H]2CC[C@@H](C)[C@@](O)(O2)C(=O)C(=O)N2CCCC[C@H]2C(=O)O[C@H]([C@H](C)C[C@@H]2CC[C@@H](OC(=O)C(C)(CO)CO)[C@H](OC)C2)CC(=O)[C@H](C)/C=C(\C)[C@@H](O)[C@@H](OC)C(=O)[C@H](C)C[C@H](C)/C=C/C=C/C=C/1C [Temsirolimus] | 3.3 L/kg
CN(C)c1cc(NC(=O)CNC(C)(C)C)c(O)c2c1C[C@H]1C[C@H]3[C@H](N(C)C)C(O)=C(C(N)=O)C(=O)[C@@]3(O)C(O)=C1C2=O [Tigecycline] | 7.2 L/kg
CN(C)CCOc1ccc(/C(=C(/CCCl)c2ccccc2)c2ccccc2)cc1 [Toremifene] | 48.38 L/kg
Nc1nc(N)c2nc(-c3ccccc3)c(N)nc2n1 [Triameterene] | 13.4 L/kg
c1cnc2cc3c(cc2n1)[C@@H]1CNC[C@H]3C1 [Varenicline] | 6.2 L/kg
CC[C@]1(O)C[C@H]2CN(CCc3c([nH]c4ccccc34)[C@@](C(=O)OC)(c3cc4c(cc3OC)N(C=O)[C@H]3[C@@](O)(C(=O)OC)[C@H](OC(C)=O)[C@]5(CC)C=CCN6CC[C@]43[C@@H]65)C2)C1 [Vincristine] | 9.79 L/kg
CCC1=C[C@@H]2CN(C1)Cc1c([nH]c3ccccc13)[C@@](C(=O)OC)(c1cc3c(cc1OC)N(C)[C@H]1[C@@](O)(C(=O)OC)[C@H](OC(C)=O)[C@]4(CC)C=CCN5CC[C@]31[C@@H]54)C2 [Vinorelbine] | 76 L/kg
Ivermectin | 9.91 L/kg
